Test results taken from ChEMBL document CHEMBL1149193, “Selective optimization of side activities: another way for drug discovery” (J Med Chem, 2004).

Legend:
[1] = target: T1, Muscarinic acetylcholine receptor M1 (Homo sapiens, UniProt P11229)
T1 sequence (P11229 whole entry): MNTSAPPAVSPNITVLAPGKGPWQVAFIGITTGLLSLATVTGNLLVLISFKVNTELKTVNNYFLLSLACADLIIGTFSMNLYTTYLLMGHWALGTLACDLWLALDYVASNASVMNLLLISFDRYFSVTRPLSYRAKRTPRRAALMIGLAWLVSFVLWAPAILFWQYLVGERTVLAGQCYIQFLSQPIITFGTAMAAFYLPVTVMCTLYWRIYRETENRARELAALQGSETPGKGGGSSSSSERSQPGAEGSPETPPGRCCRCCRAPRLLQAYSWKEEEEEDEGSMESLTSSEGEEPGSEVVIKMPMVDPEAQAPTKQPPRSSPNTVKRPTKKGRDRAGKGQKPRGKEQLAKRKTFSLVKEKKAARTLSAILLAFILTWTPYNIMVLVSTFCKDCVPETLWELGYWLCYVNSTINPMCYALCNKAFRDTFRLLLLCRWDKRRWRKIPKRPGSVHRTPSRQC
Description: Binding affinity towards muscarinic M1 receptor

[2] = target: T2, Endothelin receptor type B (Homo sapiens, UniProt P24530)
T2 sequence (P24530 whole entry): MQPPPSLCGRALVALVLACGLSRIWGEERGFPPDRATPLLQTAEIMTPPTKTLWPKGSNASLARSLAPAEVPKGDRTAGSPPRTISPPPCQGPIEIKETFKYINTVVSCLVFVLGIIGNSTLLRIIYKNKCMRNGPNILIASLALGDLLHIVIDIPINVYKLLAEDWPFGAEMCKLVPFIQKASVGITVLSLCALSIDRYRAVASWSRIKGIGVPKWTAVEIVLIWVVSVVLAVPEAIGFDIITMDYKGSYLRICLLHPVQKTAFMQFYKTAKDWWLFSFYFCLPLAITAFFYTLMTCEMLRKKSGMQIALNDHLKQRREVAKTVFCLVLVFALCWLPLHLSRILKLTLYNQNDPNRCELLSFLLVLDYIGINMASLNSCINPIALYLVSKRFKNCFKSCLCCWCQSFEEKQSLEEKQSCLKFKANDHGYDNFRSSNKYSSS

Endothelin-1 receptor [3] = target: T3, Endothelin-1 receptor (Homo sapiens, UniProt P25101)
T3 sequence (P25101 whole entry): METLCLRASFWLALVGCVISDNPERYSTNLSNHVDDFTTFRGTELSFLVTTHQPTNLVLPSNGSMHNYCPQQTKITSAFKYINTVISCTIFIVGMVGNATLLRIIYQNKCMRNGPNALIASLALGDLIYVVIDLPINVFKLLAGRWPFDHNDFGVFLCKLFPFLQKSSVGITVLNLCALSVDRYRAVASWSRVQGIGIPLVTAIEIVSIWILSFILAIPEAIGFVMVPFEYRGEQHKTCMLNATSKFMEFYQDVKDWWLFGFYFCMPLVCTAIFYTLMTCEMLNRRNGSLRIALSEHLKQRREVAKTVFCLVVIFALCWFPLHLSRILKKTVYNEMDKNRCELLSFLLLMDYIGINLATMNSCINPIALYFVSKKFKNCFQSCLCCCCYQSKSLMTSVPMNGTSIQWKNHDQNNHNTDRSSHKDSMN
Description: Binding affinity against human Endothelin A receptor

Acetylcholinesterase [4] = target: T4, Acetylcholinesterase (Electrophorus electricus, UniProt O42275); assay type: functional
T4 sequence (O42275 whole entry): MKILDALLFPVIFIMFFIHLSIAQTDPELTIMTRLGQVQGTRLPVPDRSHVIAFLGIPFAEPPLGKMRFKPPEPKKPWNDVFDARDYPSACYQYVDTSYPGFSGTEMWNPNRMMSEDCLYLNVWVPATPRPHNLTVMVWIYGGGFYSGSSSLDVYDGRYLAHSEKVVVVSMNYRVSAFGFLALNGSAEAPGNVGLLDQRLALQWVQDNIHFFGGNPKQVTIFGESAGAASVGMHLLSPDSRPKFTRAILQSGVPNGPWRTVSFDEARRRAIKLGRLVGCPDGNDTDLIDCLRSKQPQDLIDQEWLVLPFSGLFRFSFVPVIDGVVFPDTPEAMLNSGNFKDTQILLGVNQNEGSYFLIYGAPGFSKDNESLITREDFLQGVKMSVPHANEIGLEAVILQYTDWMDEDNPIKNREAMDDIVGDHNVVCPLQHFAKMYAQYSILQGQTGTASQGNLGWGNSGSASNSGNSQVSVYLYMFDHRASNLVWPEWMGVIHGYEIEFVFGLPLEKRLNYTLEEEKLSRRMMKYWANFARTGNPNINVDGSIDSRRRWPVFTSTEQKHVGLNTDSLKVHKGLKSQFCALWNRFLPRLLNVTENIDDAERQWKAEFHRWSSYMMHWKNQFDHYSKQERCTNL
Description: (§1) Inhibitory concentration towards acetylcholinesterase in electric eel

Endothelin-1 receptor [5] = target: T3, Endothelin-1 receptor; remark: listed apart in the source
Description: (§2) Inhibitory concentration against Endothelin A receptor

Rattus norvegicus = organism: Rattus norvegicus; assay type: functional
Description: Dose required for oral activity in rats

in vivo = conditions: rat
D(4) dopamine receptor = D(4) dopamine receptor (Homo sapiens, UniProt P21917)
Chain of D(4) dopamine receptor (P21917 whole entry, looked up): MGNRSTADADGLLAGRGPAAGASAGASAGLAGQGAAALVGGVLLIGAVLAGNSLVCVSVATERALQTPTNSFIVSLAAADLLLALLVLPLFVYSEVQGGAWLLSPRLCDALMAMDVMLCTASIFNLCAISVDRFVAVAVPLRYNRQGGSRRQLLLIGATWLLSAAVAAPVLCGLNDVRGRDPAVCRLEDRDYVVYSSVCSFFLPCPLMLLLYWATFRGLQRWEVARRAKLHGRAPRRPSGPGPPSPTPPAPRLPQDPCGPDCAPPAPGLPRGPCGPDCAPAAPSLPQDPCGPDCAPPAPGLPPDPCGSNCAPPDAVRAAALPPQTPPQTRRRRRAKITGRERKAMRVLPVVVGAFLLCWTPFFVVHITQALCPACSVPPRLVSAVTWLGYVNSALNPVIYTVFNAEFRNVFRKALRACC
Description: Binding affinity against human Dopamine receptor D4 versus hD2, hD3 receptor

Homo sapiens = organism: Homo sapiens; assay: cells; assay type: functional, organism-based
Description: Antiviral activity against human respiratory syncytial virus (RSV)

[6] = target: T5, Potassium voltage-gated channel subfamily KQT member 1 (Cavia porcellus, UniProt O70344); assay type: cell-based, Oocyte
T5 sequence (O70344 whole entry): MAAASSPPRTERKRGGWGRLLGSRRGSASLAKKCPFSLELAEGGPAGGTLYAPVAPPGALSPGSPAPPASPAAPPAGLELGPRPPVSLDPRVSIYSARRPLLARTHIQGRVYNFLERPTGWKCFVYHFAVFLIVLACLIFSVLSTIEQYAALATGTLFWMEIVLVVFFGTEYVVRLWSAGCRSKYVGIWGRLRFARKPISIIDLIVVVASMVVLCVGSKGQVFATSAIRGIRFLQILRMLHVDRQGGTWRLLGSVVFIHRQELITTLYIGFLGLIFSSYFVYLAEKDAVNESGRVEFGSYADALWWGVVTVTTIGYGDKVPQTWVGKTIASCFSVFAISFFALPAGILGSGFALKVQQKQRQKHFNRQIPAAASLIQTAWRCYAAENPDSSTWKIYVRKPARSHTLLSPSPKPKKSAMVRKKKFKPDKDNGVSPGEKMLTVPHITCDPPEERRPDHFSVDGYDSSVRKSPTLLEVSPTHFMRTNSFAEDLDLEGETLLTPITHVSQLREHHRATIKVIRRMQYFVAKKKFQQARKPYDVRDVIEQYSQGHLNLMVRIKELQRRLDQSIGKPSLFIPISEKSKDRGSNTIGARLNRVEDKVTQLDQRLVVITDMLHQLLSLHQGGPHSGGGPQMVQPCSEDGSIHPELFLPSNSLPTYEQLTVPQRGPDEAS
Description: (§3) Inhibition of guinea pig Iks potassium channel expressed in Xenopus oocytes

[7] = target: T5, Potassium voltage-gated channel subfamily KQT member 1; assay type: functional, cell-based, Oocyte
Description: as §3

Acetylcholinesterase [8] = target: T4, Acetylcholinesterase
Description: as §1

D(3) dopamine receptor = D(3) dopamine receptor (Homo sapiens, UniProt P35462)
Chain of D(3) dopamine receptor (P35462 whole entry): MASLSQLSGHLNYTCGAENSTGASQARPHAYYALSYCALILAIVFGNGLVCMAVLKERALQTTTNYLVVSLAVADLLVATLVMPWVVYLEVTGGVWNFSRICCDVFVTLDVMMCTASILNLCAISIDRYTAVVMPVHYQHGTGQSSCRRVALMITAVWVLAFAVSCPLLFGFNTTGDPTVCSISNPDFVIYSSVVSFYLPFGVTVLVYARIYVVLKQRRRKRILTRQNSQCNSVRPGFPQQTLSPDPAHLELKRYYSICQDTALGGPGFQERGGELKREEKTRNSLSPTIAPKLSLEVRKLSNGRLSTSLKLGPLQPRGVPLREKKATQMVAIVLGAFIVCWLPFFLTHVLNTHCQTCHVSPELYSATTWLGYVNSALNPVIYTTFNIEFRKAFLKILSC
Description: Binding affinity against Dopamine receptor D3

[9] = target: T6, Adrenergic receptor alpha-1 (Homo sapiens, UniProt P35348+P25100+P35368)
T6 sequence (P35348 whole entry): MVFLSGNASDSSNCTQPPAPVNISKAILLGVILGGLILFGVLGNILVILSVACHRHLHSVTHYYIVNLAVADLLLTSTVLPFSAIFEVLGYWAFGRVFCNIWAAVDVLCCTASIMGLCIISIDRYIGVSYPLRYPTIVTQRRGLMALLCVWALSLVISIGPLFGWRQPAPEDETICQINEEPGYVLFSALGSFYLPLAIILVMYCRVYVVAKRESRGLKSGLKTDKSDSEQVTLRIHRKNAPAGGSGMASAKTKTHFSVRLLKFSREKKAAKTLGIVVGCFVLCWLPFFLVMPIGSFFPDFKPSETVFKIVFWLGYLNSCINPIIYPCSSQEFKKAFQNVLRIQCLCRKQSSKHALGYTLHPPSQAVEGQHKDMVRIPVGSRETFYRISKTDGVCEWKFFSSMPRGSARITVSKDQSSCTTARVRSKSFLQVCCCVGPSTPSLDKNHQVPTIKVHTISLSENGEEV
T6 sequence (P25100 whole entry): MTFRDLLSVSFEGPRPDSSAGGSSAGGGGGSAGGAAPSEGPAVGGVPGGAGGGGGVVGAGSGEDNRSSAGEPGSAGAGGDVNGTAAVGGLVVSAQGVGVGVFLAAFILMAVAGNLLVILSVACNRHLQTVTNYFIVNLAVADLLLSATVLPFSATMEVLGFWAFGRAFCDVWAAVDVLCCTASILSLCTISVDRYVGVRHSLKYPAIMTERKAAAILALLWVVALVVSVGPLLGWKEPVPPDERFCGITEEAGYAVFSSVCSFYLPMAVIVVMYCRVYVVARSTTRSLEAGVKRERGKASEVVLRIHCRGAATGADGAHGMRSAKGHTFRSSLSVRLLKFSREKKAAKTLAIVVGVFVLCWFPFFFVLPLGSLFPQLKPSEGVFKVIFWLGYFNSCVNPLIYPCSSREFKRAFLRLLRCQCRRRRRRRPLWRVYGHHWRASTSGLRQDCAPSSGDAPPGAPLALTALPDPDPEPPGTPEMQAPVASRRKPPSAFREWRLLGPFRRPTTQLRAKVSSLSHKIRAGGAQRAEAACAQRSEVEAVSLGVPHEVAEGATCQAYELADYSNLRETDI
T6 sequence (P35368 whole entry): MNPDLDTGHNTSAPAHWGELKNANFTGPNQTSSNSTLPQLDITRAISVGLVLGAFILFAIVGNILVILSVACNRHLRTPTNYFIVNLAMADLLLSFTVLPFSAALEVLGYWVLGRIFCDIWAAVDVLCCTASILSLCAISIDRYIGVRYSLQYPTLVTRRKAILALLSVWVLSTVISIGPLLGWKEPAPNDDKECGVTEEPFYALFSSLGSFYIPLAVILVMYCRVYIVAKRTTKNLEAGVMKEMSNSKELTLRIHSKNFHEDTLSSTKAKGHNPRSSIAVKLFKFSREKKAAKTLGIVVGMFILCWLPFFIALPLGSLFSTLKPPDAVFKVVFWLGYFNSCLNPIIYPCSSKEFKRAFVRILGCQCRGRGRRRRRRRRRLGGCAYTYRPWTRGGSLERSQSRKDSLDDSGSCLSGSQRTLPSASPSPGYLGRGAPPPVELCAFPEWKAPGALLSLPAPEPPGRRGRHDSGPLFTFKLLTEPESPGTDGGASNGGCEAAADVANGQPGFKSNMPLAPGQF
Description: Binding affinity towards human alpha-1 adrenergic receptor

[10] = target: Muscarinic acetylcholine receptor; assay type: protein assay
Description: (§4) Binding affinity towards human muscarinic receptor

Endothelin-1 receptor [11] = target: T3, Endothelin-1 receptor; remark: listed apart in the source
Description: as §2

[12] = target: T7, Muscarinic acetylcholine receptor M4 (Homo sapiens, UniProt P08173)
T7 sequence (P08173 whole entry): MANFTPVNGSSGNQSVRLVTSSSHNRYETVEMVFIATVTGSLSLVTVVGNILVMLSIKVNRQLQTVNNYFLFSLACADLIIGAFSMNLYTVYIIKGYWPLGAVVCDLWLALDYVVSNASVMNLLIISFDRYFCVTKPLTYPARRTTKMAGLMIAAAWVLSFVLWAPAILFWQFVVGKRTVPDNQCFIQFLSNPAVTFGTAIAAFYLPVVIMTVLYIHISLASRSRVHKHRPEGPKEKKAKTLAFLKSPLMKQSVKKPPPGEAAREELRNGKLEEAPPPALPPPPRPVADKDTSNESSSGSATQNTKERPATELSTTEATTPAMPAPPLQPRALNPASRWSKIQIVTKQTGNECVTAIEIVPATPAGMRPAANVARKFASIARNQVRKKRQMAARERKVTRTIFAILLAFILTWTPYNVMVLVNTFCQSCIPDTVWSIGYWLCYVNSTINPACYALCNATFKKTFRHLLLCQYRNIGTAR
Description: as §4

## Cc1cc(NCCN2CCOCC2)nnc1-c1ccccc1
[1]
  Ki: 550 nM

## COc1cc(OC)nc(CC(C(=O)O)C(C)(Oc2ccc(SC)cc2)c2ccccc2)n1 (configuration not stated)
[2]
  Ki: 4.7 µM
Endothelin-1 receptor [3]
  Ki: 160 nM

## c1ccc(-c2ccc(NCCCCN3CCc4ccccc4C3)nn2)cc1
Acetylcholinesterase [4]
  IC50: 1.9 µM

## Cc1cc(NCCN2C3CCCC2CC3)nnc1-c1ccccc1
[1]
  Ki: 50 nM

## Cc1noc(NS(=O)(=O)c2ccccc2-c2ccc(-c3ncco3)cc2CNC(=O)CC(C)(C)C)c1C
Endothelin-1 receptor [5]
  Ki: 0.01 nM
Rattus norvegicus
  Dose: 3 µM/kg
In vivo
  bioavailability: 100%

## Cc1cc(NCCN2C3CCCC2CC3)nnc1-c1ccccc1O
[1]
  Ki: 3 nM

## c1ccc(-c2ccc(NCCN3CCCCC3)nn2)cc1
Acetylcholinesterase [4]
  IC50: 13 µM

## COc1cccc(CN2CC[C@H](NC(=O)c3cc(Cl)c(NC(=O)C4CC4)cc3OC)C2)c1
D(4) dopamine receptor
  Ki: 5.62 nM

## COc1cc(OC)nc(CC(C(=O)O)C(C)(Oc2ccc(C(C)C)cc2)c2ccccc2)n1 (configuration not stated)
[2]
  Ki: 3 µM
Endothelin-1 receptor [3]
  Ki: 250 nM

## NC(=O)CCN(CCC(N)=O)S(=O)(=O)c1cccc(Nc2nc(Nc3cccc(S(=O)(=O)N(CCC(N)=O)CCC(N)=O)c3)nc(Nc3ccc(-c4ccc(Nc5nc(Nc6cccc(S(=O)(=O)N(CCC(N)=O)CCC(N)=O)c6)nc(Nc6cccc(S(=O)(=O)N(CCC(N)=O)CCC(N)=O)c6)n5)cc4S(=O)(=O)O)c(S(=O)(=O)O)c3)n2)c1
Homo sapiens
  IC50: 50 nM

## NC(=O)CCN(CCC(N)=O)S(=O)(=O)c1cccc(Nc2nc(Nc3cccc(S(=O)(=O)N(CCC(N)=O)CCC(N)=O)c3)nc(Nc3ccc(/C=C/c4ccc(Nc5nc(Nc6cccc(S(=O)(=O)N(CCC(N)=O)CCC(N)=O)c6)nc(Nc6cccc(S(=O)(=O)N(CCC(N)=O)CCC(N)=O)c6)n5)cc4S(=O)(=O)O)c(S(=O)(=O)O)c3)n2)c1
Homo sapiens
  IC50: 150 nM

## CCS(=O)(=O)N(C)C1c2cc(C#N)ccc2OC(C)(C)[C@@H]1O (single isomer, unassigned)
[6]
  IC50: 5 µM

## CCS(=O)(=O)N(C)C1c2cc(C#N)ccc2OC(C)(C)[C@H]1O (single isomer, unassigned)
[7]
  IC50: 6.2 µM
[6]
  IC50: 39 µM

## Cc1cc(-c2ccccc2)nnc1NCCN1CCOCC1 [MINAPRINE]
Acetylcholinesterase [8]
  IC50: 600 µM
[1]
  Ki: 17000 nM

## CCCCN1CCCC1CNC(=O)c1cc(C#N)c2ccccc2c1OC (configuration not stated) [NAFADOTRIDE]
D(3) dopamine receptor
  Ki: 0.11 nM

## O=C1NCCN1CCN1CCC(c2cn(-c3ccc(F)cc3)c3ccc(Cl)cc23)CC1 [SERTINDOLE]
[9]
  Ki: 1.8 nM
[10]
  Ki: > 5 µM

## Nc1ccc(S(=O)(=O)Nc2nccs2)cc1 [SULFATHIAZOLE]
Endothelin-1 receptor [11]
  IC50: 69 µM

## O=C1Cc2cc(CCN3CCN(c4nsc5ccccc45)CC3)c(Cl)cc2N1 [ZIPRASIDONE]
[9]
  Ki: 12 nM
[10]
  Ki: > 5 µM

## CN(C)CCOC1=Cc2ccccc2Sc2ccc(Cl)cc21 [ZOTEPINE]
[12]
  Ki: 550 nM
